Source: the NIST ThermoML archive (doi:10.1016/j.jct.2015.08.033)

Assay: mn = molality of the nth substance listed, in mol/kg
Details: 100 kPa, Liquid; for speed of sound: Frequency=3 MHz, Sing-around technique in a fixed-path interferometer; for mass density: Vibrating tube method

O=S(=O)([O-])C(F)(F)F.O=S(=O)([O-])C(F)(F)F.[Ca+2] [calcium trifluoromethanesulfonate] + CN(C)C=O
Details	mass density, 298.15 K [kg/m3]	mass density, 303.15 K [kg/m3]	mass density, 308.15 K [kg/m3]	mass density, 313.15 K [kg/m3]	mass density, 318.15 K [kg/m3]	speed of sound, 298.15 K [m/s]	speed of sound, 303.15 K [m/s]	speed of sound, 308.15 K [m/s]	speed of sound, 313.15 K [m/s]	speed of sound, 318.15 K [m/s]
m1 = 0.01106	946.239	941.472	936.692	931.892	927.09	1457.3	1438.1	1418.8	1399.6	1380.3
m1 = 0.01878	947.845	943.075	938.305	933.505	928.705	1457.4	1438.2	1418.9	1399.7	1380.6
m1 = 0.02772	949.696	944.925	940.169	935.363	930.568	1457.4	1438.3	1419	1399.9	1380.8
m1 = 0.03952	952.113	947.355	942.581	937.793	932.985	1457.4	1438.3	1419.2	1400.1	1381.1
m1 = 0.05628	955.509	950.747	945.976	941.193	936.398	1457.5	1438.3	1419.2	1400.2	1381.2
m1 = 0.06961	958.2	953.444	948.677	943.893	939.103	1457.3	1438.3	1419.3	1400.3	1381.4
m1 = 0.08918	962.098	957.344	952.579	947.802	943.015	1457.1	1438.2	1419.2	1400.3	1381.5
m1 = 0.1114	966.493	961.744	956.98	952.205	947.419	1456.8	1438	1419.1	1400.3	1381.6
m1 = 0.1344	971.012	966.262	961.501	956.728	951.947	1456.6	1437.8	1419	1400.3	1381.6
m1 = 0.1671	977.356	972.601	967.839	963.068	958.29	1456.4	1437.6	1418.8	1400.2	1381.6

O=S(=O)([O-])C(F)(F)F.O=S(=O)([O-])C(F)(F)F.[Mg+2] [magnesium triflate] + CC(=O)N(C)C
Details	mass density, 298.15 K [kg/m3]	mass density, 303.15 K [kg/m3]	mass density, 308.15 K [kg/m3]	mass density, 313.15 K [kg/m3]	mass density, 318.15 K [kg/m3]	speed of sound, 298.15 K [m/s]	speed of sound, 303.15 K [m/s]	speed of sound, 308.15 K [m/s]	speed of sound, 313.15 K [m/s]	speed of sound, 318.15 K [m/s]
m1 = 0.009142	938.272	933.667	929.056	924.433	919.8	1456.4	1436.7	1416.9	1397.2	1377.7
m1 = 0.01469	939.459	934.86	930.249	925.632	921.007	1456.7	1436.9	1417.2	1397.6	1378.1
m1 = 0.02251	941.134	936.55	931.947	927.333	922.714	1457	1437.3	1417.7	1398.1	1378.6
m1 = 0.03194	943.119	938.53	933.932	929.324	924.71	1457.4	1437.8	1418.2	1398.6	1379.2
m1 = 0.04489	945.817	941.246	936.655	932.054	927.445	1457.9	1438.3	1418.8	1399.3	1379.9
m1 = 0.05714	948.308	943.72	939.134	934.538	929.945	1458.3	1438.8	1419.3	1399.9	1380.6
m1 = 0.07138	951.266	946.705	942.126	937.537	932.941	1458.9	1439.4	1419.9	1400.6	1381.3
m1 = 0.08889	954.777	950.211	945.637	941.054	936.462	1459.5	1440.1	1420.7	1401	1382.1
m1 = 0.1071	958.463	953.905	949.338	944.772	940.1	1460	1440.7	1421.3	1401.9	1382.8
m1 = 0.1341	963.77	959.1	954.5	950	945.4	1460.7	1441.5	1422.3	1403.2	1384.2

[Ba+2].[O-][Cl+3]([O-])([O-])[O-].[O-][Cl+3]([O-])([O-])[O-] [barium perchlorate] + CN(C)C=O
Details	mass density, 298.15 K [kg/m3]	mass density, 303.15 K [kg/m3]	mass density, 308.15 K [kg/m3]	mass density, 313.15 K [kg/m3]	mass density, 318.15 K [kg/m3]	speed of sound, 298.15 K [m/s]	speed of sound, 303.15 K [m/s]	speed of sound, 308.15 K [m/s]	speed of sound, 313.15 K [m/s]	speed of sound, 318.15 K [m/s]
m1 = 0.01339	947.432	942.667	937.889	933.096	928.287	1458.1	1438.9	1419.6	1400.4	1381.3
m1 = 0.02254	949.821	945.058	940.281	935.489	930.686	1458.7	1439.5	1420.2	1401.1	1381.9
m1 = 0.0331	952.562	947.81	943.03	938.243	933.442	1459.5	1440.2	1420.9	1401.8	1382.7
m1 = 0.04712	956.179	951.422	946.652	941.866	937.07	1459.9	1440.9	1421.7	1402.7	1383.7
m1 = 0.06582	960.992	956.235	951.468	946.686	941.893	1460.9	1441.9	1422.8	1403.8	1384.9
m1 = 0.08395	965.617	960.865	956.099	951.321	946.53	1461.8	1442.8	1423.8	1405	1386.1
m1 = 0.1061	971.226	966.477	961.715	956.94	952.153	1462.8	1444	1425.1	1406.3	1387.5
m1 = 0.1322	977.835	973.089	968.33	963.559	958.776	1464.1	1445.4	1426.6	1407.8	1389.2
m1 = 0.1588	984.508	979.766	975.008	970.24	965.461	1465.4	1446.8	1428	1409.4	1390.8
m1 = 0.1995	994.63	989.888	985.134	980.371	975.596	1467.4	1448.9	1430.3	1411.8	1393.3

O=S(=O)([O-])C(F)(F)F.O=S(=O)([O-])C(F)(F)F.[Sr+2] [strontium trifluoromethanesulfonate] + CN(C)C=O
Details	mass density, 298.15 K [kg/m3]	mass density, 303.15 K [kg/m3]	mass density, 308.15 K [kg/m3]	mass density, 313.15 K [kg/m3]	mass density, 318.15 K [kg/m3]	speed of sound, 298.15 K [m/s]	speed of sound, 303.15 K [m/s]	speed of sound, 308.15 K [m/s]	speed of sound, 313.15 K [m/s]	speed of sound, 318.15 K [m/s]
m1 = 0.01062	946.522	941.756	936.972	932.186	927.378	1457.2	1438	1418.7	1399.5	1380.3
m1 = 0.01763	948.231	943.466	938.685	933.888	929.08	1457.2	1438	1418.7	1399.6	1380.4
m1 = 0.02656	950.395	945.626	940.844	936.049	931.241	1457.1	1438	1418.7	1399.6	1380.5
m1 = 0.03847	953.244	948.482	943.704	938.91	934.105	1457	1437.9	1418.7	1399.6	1380.6
m1 = 0.04908	955.781	951.013	946.233	941.439	936.634	1456.8	1437.8	1418.6	1399.6	1380.6
m1 = 0.06765	960.189	955.42	950.641	945.845	941.04	1456.5	1437.6	1418.5	1399.5	1380.7
m1 = 0.08503	964.269	959.5	954.718	949.923	945.118	1456.2	1437.3	1418.3	1399.5	1380.6
m1 = 0.1067	969.35	964.567	959.781	954.985	950.18	1456.1	1437.1	1418.2	1399.3	1380.6
m1 = 0.1286	974.403	969.629	964.845	960.047	955.242	1455.4	1436.7	1417.9	1399.1	1380.5
m1 = 0.1612	981.851	977.074	972.285	967.485	962.676	1454.7	1436.1	1417.4	1398.8	1380.2
